From BindingDB's records for doi:10.1016/j.bmcl.2010.09.117 (University of London, 2010)

Biological target: Signal transducer and activator of transcription 3 (Homo sapiens, UniProt P40763)
Test: Inhibition of STAT3 in human HeLa cells by luciferase reporter assay

Signal transducer and activator of transcription 3, sequence (P40763 whole entry): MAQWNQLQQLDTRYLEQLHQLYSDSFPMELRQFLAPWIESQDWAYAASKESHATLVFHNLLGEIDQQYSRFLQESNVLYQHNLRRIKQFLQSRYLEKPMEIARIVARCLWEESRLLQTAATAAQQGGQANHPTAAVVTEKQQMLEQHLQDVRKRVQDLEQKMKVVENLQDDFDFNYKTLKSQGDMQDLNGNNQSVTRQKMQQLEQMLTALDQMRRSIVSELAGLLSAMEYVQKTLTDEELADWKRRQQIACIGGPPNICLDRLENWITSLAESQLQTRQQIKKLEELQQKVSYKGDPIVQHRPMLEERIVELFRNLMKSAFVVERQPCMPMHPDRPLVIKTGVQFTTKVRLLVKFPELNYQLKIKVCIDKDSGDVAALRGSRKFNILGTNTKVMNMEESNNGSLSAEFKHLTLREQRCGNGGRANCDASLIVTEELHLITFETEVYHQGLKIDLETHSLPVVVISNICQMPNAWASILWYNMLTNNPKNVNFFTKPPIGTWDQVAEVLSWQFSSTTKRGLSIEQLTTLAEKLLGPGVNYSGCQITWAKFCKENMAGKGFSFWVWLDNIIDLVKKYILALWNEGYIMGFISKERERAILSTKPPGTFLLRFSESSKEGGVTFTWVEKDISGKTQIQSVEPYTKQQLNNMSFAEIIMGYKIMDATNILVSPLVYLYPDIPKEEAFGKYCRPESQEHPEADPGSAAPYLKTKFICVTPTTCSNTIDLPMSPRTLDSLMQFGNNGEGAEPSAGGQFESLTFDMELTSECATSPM

With Cc1ccc(-c2sc(C(=O)NCc3cccs3)cc2S(=O)(=O)N2CCCC2)cc1 [4-(pyrrolidin-1-ylsulfonyl)-N-(thiophen-2-ylmethyl)-5-p-tolylthiophene-2-carboxamide] the EC50 was 15 µM.
